What was measured:
[1] = Single-ascending dose (SAD) study in healthy subjects: plasma and urine pharmacokinetics; settings: human, in vivo
Description: A second, generally lower peak was often observed at 3 to 4 hours postdose.
A second, generally lower peak was often observed at 3 to 4 hours post-dose. […] Over the anticipated therapeutically relevant dose range (through 10 mg), peak and overall exposures (as assessed by Cmax and area under the concentration-time curve [AUC]) increased in a generally dose-proportional manner.
Single- and Multiple-Dose Plasma Pharmacokinetics of (R)-compound 1. The single- and multiple-dose PK profiles of (R)-compound 1 have been characterized in healthy subjects in the Phase 1 studies. FIG. 7 depicts the mean plasma concentration versus time profiles of (R)-compound 1 after administration of single oral doses of (R)-compound 1 ranging from 1 mg to 360 mg (under low salt conditions) and at steady-state over the range of 0.5 mg to 5 mg (under low and/or normal salt conditions). After oral administration, (R)-compound 1 is rapidly absorbed with peak concentrations observed within 3 hours after dosing (range 0.5 to 4 hours).

[2] = SAD study Part 2: adverse events under low/normal salt diet and 3 mg IV dose; format: in vivo
Description: There were no dose-related increases in the incidence of AEs (Table 15). No severe AEs, SAEs, withdrawals due to AEs, or deaths were reported. A larger proportion of subjects reported AEs during the 3 mg IV dose (75%) compared to any of the oral doses (maximum of 66.7% with 3 mg during the low salt diet and with 10 mg during both the low and normal salt diet). Overall, the most frequently reported AEs were nasopharyngitis, asthenia, and dizziness. AEs reported by >1 subject at any dose level and with either salt diet were asthenia (2 subjects [33.3%] with 10 mg low salt diet, 2 subjects [33.3%] with placebo low salt diet), nasopharyngitis (3 subjects [37.5%] with 3 mg IV, 2 subjects [33.3%] with 10 mg low salt diet), dizziness (2 subjects [33.3%] with 3 mg low salt diet) and gingival pain (2 subjects [33.3%] with 10 mg low salt diet). Only 1 AE (dizziness) reported by a subject receiving 10 mg (R)-compound 1 under normal salt diet conditions was considered related to the study drug. One case of fractured coccyx and one case of concussion (both reported for subjects who received the IV dose) were moderate in intensity and all other AEs were mild in intensity. […]

CCC(=O)N[C@@H]1CCCc2c(-c3ccc4c(c3)CCC(=O)N4C)cncc21 [(R)-Compound 1, (R)—N-(4-(1-methyl-2-oxo-1,2,3,4-tetrahydroquinolin-6-yl)-5,6,7,8-tetrahydroisoquinolin-8-yl)propionamide]
CL renal [1]: 4.63 to 7.38 mL/min
Renal clearance as share of total plasma clearance, average [1]: 15.5%
Renal clearance as share of total plasma clearance, range of individual values [1]: 6.53-31.8%
fraction unbound [1]: 0.26
dose recovered unchanged in the urine ([1]; po): Approximately 110%
half-life ([1]; po): 25 to 31 h
median time (tmax) to maximum observed concentration (Cmax) ([1]; po): 0.5 to 2 h
second, generally lower peak, time postdose ([1]; po): 3 to 4 h
time to peak concentrations, range ([1]; po): 0.5 to 4 h
AUC(0-inf) ([1]; po, 1 mg): 330 ng·h/mL
AUC(0-t) ([1]; po, 1 mg): 147 ng·h/mL
AUCextrapoloated ([1]; po, 1 mg): 1.66%
CL/F ([1]; po, 1 mg): 3270 mL/h
Cmax ([1]; po, 1 mg): 10.1 ng/mL
Tmax ([1]; po, 1 mg): 1 h
Vd/F ([1]; po, 1 mg): 122 L
half-life ([1]; po, 1 mg): 27.4 h
AUC(0-inf) ([1]; po, 3 mg): 1070 ng·h/mL
AUC(0-t) ([1]; po, 3 mg): 491 ng·h/mL
AUCextrapoloated ([1]; po, 3 mg): 1.68%
CL/F ([1]; po, 3 mg): 2820 mL/h
Cmax ([1]; po, 3 mg): 31.9 ng/mL
Tmax ([1]; po, 3 mg): 2 h
Vd/F ([1]; po, 3 mg): 117 L
half-life ([1]; po, 3 mg): 29.1 h
AUC(0-inf) ([1]; po, 10 mg): 3630 ng·h/mL
AUC(0-t) ([1]; po, 10 mg): 1600 ng·h/mL
AUCextrapoloated ([1]; po, 10 mg): 1.37%
CL/F ([1]; po, 10 mg): 2820 mL/h
Cmax ([1]; po, 10 mg): 125 ng/mL
Tmax ([1]; po, 10 mg): 0.5 h
Vd/F ([1]; po, 10 mg): 123 L
half-life ([1]; po, 10 mg): 30.7 h
AUC(0-inf) ([1]; po, 30 mg): 11000 ng·h/mL
AUC(0-t) ([1]; po, 30 mg): 5260 ng·h/mL
AUCextrapoloated ([1]; po, 30 mg): 0.986%
CL/F ([1]; po, 30 mg): 2820 mL/h
Cmax ([1]; po, 30 mg): 386 ng/mL
Tmax ([1]; po, 30 mg): 0.75 h
half-life ([1]; po, 30 mg): 29.4 h
AUC(0-inf) ([1]; po, 90 mg): 32200 ng·h/mL
AUC(0-t) ([1]; po, 90 mg): 18300 ng·h/mL
AUCextrapoloated ([1]; po, 90 mg): 0456%
CL/F ([1]; po, 90 mg): 2830 mL/h
Cmax ([1]; po, 90 mg): 1380 ng/mL
Tmax ([1]; po, 90 mg): 1.25 h
Vd/F ([1]; po, 90 mg): 102 L
half-life ([1]; po, 90 mg): 25.3 h
AUC(0-inf) ([1]; po, 180 mg): 65800 ng·h/mL
AUC(0-t) ([1]; po, 180 mg): 33200 ng·h/mL
AUCextrapoloated ([1]; po, 180 mg): 0.789%
CL/F ([1]; po, 180 mg): 2900 mL/h
Cmax ([1]; po, 180 mg): 2490 ng/mL
Tmax ([1]; po, 180 mg): 1 h
Vd/F ([1]; po, 180 mg): 114 L
half-life ([1]; po, 180 mg): 28 h
AUC(0-inf) ([1]; po, 360 mg): 147000 ng·h/mL
AUC(0-t) ([1]; po, 360 mg): 73200 ng·h/mL
AUCextrapoloated ([1]; po, 360 mg): 0719%
CL/F ([1]; po, 360 mg): 2480 mL/h
Cmax ([1]; po, 360 mg): 5750 ng/mL
Tmax ([1]; po, 360 mg): 0.5 h
half-life ([1]; po, 360 mg): 27.8 h
Any AE, % of subjects ([2]; 1 mg, low salt diet, N = 6): (33.3) %
Any AE, number of subjects ([2]; 1 mg, low salt diet, N = 6): 2
Related AE, number of subjects ([2]; 1 mg, low salt diet, N = 6): 0
Any AE, % of subjects ([2]; 1 mg, normal salt diet, N = 6): (50.0) %
Any AE, number of subjects ([2]; 1 mg, normal salt diet, N = 6): 3
Related AE, number of subjects ([2]; 1 mg, normal salt diet, N = 6): 0
proportion of subjects reporting AEs ([2]; 3 mg IV dose): 75%
Any AE, % of subjects ([2]; 3 mg IV, N = 8): (75.0) %
Any AE, number of subjects ([2]; 3 mg IV, N = 8): 6
Related AE, number of subjects ([2]; 3 mg IV, N = 8): 0
proportion of subjects reporting AEs, maximum of the oral doses ([2]; 3 mg low salt diet, 10 mg low and normal salt diet): ≤ 66.7%
Any AE, % of subjects ([2]; 3 mg, low salt diet, N = 6): (66.7) %
Any AE, number of subjects ([2]; 3 mg, low salt diet, N = 6): 4
Related AE, number of subjects ([2]; 3 mg, low salt diet, N = 6): 0
Any AE, % of subjects ([2]; 3 mg, normal salt diet, N = 6): (33.3) %
Any AE, number of subjects ([2]; 3 mg, normal salt diet, N = 6): 2
Related AE, number of subjects ([2]; 3 mg, normal salt diet, N = 6): 0
AEs considered related to the study drug (dizziness) ([2]; 10 mg normal salt diet): 1 AE
Any AE, % of subjects ([2]; 10 mg, low salt diet, N = 6): (66.7) %
Any AE, number of subjects ([2]; 10 mg, low salt diet, N = 6): 4
Related AE, number of subjects ([2]; 10 mg, low salt diet, N = 6): 0
Any AE, % of subjects ([2]; 10 mg, normal salt diet, N = 6): (66.7) %
Any AE, number of subjects ([2]; 10 mg, normal salt diet, N = 6): 4
Related AE, % of subjects ([2]; 10 mg, normal salt diet, N = 6): (16.7) %
Related AE, number of subjects ([2]; 10 mg, normal salt diet, N = 6): 1

From patent US20240277698A1, “METHODS OF USING ALDOSTERONE SYNTHASE INHIBITORS” (CINCOR PHARMA, INC., priority 2021, published 2024)
